These results are taken from ChEMBL document CHEMBL1201862, “PubChem BioAssay data set” (2004).

Test [1] is described as follows: NIH3T3 cell viability loss – ATP luminescence, mouse fibroblasts, counter-screen, dose response (AID 2010).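 Further: cells exposed to compound for about 90 hours before reading.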 Format: functional, cell-based.
The target of test [2] is T1, Protein RecA (Mycobacterium tuberculosis, UniProt P9WHJ3).
T1 sequence (P9WHJ3 whole entry): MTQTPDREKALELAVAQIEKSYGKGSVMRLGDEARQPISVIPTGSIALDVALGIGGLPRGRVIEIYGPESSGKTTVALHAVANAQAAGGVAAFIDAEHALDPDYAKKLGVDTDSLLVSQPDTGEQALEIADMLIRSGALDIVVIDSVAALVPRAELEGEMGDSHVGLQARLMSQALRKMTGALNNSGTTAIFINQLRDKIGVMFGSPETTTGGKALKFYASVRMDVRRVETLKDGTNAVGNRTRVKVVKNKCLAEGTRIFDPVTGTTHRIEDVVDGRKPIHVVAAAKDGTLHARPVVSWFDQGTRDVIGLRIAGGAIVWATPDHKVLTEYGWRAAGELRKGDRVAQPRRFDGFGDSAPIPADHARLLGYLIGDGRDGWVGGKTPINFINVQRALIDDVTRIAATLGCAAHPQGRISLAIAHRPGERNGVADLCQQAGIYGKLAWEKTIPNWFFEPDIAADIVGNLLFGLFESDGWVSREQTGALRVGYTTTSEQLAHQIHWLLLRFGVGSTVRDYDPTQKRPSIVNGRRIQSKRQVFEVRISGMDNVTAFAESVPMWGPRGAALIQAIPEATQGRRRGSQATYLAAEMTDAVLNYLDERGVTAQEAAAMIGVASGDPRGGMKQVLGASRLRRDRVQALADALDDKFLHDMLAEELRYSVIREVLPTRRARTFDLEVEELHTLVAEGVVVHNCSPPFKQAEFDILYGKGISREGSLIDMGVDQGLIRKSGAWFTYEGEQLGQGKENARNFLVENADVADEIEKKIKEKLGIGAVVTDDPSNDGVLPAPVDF
The test can be described thus: Fluorescence Cell-Free Homogeneous Dose Retest to Identify Inhibitors of RecA-Intein Splicing Activity. [Related pubchem assays (depositor defined):AID2097, AID2223, AID489010, AID492950]. Format: functional.

Test [3] can be described thus: HPDE-C7 pancreatic duct cell viability loss – fluorescence, HTS (AID 430). Format: functional, cell-based. The settings on record: Homo sapiens.
Test [4] in a line: non-specific 3'UTR reporter inhibition in Clone20-Shn3RL – cell-based, Renilla luciferase, cherry-picked, counter-screen for Shn3 inhibitor project, dose response (AID 624133). Format: functional.
Test [5] in a line: MIN6 cell viability loss – mouse insulinoma, cytotoxicity control, dose response (AID 2122).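 Further: confirmatory high-throughput counterscreen run to flag cytotoxic compounds.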 In kind it is functional.
A short description of test [6]: Trypanosoma cruzi growth suppression in host cells – NIH3T3 host cells, beta-gal luminescence, confirmation (AID 2044).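 Further: intracellular parasites grown in NIH/3T3 mouse fibroblasts as host cells; luminescent beta-galactosidase reporter signal from transgenic T. cruzi replicating inside host cells; inhibitors lower the luminescence signal.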 In kind it is functional, cell-based.
A short description of test [7]: loss of viability in HepG2 cells – cell-based, CellTiter-Glo, cherry-picked, cytotoxicity control for Shn3 inhibitor project, dose response (AID 624134). In kind it is functional.
Test [8] in a line: viability loss of HPDE-C7K cells – cell-based, fluorescence, HTS, primary screen (AID 431). In kind it is functional. Particulars: Homo sapiens.
In test [9] the target is Melanocortin receptor 4 (Homo sapiens, UniProt P32245). The test can be described thus: inhibitors of MC4R cAMP signaling – cell-based, TR-FRET, biased antagonists, dose response (AID 602298).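 Further: antagonist potency against agonist-stimulated cAMP production.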 Format: functional.
Test [10] concerns the target T2, Replicative DNA helicase DnaB (Mycobacterium tuberculosis, UniProt P9WMR3).
T2 sequence (P9WMR3 whole entry): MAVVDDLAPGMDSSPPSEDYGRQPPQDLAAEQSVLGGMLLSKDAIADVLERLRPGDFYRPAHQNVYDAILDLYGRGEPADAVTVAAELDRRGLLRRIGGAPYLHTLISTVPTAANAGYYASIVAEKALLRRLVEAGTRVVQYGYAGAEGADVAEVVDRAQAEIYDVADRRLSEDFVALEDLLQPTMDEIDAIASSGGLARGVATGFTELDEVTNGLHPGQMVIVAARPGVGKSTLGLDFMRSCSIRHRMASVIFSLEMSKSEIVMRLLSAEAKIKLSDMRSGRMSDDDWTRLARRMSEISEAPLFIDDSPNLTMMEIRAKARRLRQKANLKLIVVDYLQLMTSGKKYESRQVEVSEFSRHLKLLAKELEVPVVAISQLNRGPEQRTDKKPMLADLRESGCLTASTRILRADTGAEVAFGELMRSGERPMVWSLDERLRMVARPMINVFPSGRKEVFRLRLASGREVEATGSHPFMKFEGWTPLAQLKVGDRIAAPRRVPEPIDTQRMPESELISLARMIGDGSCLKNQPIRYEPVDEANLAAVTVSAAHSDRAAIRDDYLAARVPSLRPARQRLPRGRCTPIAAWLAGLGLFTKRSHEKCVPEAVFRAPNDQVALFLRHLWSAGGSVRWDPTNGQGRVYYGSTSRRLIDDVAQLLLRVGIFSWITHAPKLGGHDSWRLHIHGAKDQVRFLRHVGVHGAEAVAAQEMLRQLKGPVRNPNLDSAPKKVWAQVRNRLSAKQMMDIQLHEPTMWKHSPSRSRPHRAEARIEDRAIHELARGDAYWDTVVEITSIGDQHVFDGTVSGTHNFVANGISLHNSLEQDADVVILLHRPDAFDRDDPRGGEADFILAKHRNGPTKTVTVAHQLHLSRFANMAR
The test can be described thus: DnaB intein splicing inhibitors, dose response, biochemical, cell-free fluorescence (AID 449749). In kind it is functional.

Test [11] concerns the target Heat shock protein HSP 90-alpha (Homo sapiens, UniProt P07900). Format: functional, organism-based.
A short description of test [12]: reduction of Shn3 3'UTR-driven luciferase in osteoblasts – cell-based, Clone20 osteoblasts, firefly luciferase, cherry-picked, dose response (AID 624132).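 Further: firefly luciferase luminescence from reporter carrying the Shn3 3'UTR in osteoblasts.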 Format: functional.
Test [13] is described as follows: decrease of insulin promoter-GFP reporter – imaging, high-content screening, mouse beta cells (AID 1628). In kind it is functional. The settings on record: MIN6.
Test [14] deals with Beta-2 adrenergic receptor (Homo sapiens, UniProt P07550). The test can be described thus: ADRB2 activation measured by internalization – cell-based, FAP fluorogen, flow cytometry, cherry pick 1, dose response (AID 588763). Format: functional.
Test [15] deals with Beta-galactosidase (Escherichia coli, UniProt Q8VNN2). As to the kind of experiment: detection-enzyme interference by beta-gal modulators – biochemical, E. coli enzyme, set 3, artefact control for CCR6 antagonist project, dose response (AID 504712). Format: functional.
The target in test [16] is C-C chemokine receptor type 6 (Homo sapiens, UniProt P51684). As to the kind of experiment: antagonism of CCR6 beta-arrestin recruitment – cell-based, luminescent beta-arrestin readout, dose response (AID 504728). Format: functional.
Test [17] in a line: cAMP pathway inhibition in counterscreen cell line – TR-FRET cAMP detection, counter-screen for MC4R biased antagonist project, dose response (AID 602305).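 Further: U2OS cells stimulated with forskolin near its EC80 as the cAMP inducer; potency is for inhibition of forskolin-stimulated cAMP signaling.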 In kind it is functional, cell-based.

Structures are written as SMILES. Active and inactive are the calls of the source.

C-C chemokine receptor type 6, sequence (P51684 whole entry): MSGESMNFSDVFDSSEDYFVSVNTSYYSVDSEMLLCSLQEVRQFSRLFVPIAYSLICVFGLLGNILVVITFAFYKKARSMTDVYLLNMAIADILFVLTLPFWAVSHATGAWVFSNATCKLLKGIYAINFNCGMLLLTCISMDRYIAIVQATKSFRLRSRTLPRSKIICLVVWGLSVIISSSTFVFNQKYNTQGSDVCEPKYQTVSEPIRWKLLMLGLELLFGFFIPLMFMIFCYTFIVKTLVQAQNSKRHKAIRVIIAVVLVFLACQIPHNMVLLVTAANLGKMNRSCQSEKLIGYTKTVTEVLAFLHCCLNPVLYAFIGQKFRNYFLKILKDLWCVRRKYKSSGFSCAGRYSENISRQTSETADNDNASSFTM
Beta-2 adrenergic receptor, sequence (P07550 whole entry): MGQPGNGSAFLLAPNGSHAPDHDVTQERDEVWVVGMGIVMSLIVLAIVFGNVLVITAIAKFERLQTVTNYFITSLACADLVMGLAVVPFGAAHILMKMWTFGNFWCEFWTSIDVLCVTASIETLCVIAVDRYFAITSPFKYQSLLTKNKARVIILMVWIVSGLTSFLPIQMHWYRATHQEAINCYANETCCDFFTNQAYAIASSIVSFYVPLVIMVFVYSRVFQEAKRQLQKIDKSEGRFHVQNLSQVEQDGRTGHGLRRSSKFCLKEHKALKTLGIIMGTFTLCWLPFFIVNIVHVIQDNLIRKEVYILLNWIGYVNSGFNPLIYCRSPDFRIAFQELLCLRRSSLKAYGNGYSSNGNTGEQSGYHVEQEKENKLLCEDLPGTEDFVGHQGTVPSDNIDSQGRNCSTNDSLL
Beta-galactosidase, sequence (Q8VNN2 whole entry): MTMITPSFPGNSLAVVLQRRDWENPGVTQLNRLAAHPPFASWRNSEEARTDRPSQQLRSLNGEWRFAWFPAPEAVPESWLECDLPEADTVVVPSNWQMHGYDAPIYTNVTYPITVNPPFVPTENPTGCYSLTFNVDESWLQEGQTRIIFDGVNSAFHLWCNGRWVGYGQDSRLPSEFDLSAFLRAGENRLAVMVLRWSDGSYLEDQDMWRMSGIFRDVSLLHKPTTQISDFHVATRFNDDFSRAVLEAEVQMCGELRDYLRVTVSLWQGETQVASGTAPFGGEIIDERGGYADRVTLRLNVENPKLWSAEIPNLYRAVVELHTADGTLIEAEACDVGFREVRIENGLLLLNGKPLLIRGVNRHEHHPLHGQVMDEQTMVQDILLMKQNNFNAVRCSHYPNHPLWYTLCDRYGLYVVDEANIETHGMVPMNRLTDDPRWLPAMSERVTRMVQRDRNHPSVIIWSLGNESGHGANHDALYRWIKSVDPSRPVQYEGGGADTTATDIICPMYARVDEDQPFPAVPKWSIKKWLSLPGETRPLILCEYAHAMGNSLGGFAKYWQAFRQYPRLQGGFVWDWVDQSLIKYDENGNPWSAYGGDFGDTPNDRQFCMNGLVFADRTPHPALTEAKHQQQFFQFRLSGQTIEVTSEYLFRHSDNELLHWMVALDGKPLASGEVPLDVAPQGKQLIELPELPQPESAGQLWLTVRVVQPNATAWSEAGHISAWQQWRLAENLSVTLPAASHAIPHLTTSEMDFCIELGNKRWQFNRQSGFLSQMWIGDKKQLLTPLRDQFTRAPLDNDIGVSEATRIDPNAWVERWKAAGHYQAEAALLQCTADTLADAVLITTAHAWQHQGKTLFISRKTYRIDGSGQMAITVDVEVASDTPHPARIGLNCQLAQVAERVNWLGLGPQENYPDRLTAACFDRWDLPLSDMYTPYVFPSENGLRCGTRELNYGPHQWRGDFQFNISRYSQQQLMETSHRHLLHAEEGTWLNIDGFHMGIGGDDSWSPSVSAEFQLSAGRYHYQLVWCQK
Melanocortin receptor 4, sequence (P32245 whole entry): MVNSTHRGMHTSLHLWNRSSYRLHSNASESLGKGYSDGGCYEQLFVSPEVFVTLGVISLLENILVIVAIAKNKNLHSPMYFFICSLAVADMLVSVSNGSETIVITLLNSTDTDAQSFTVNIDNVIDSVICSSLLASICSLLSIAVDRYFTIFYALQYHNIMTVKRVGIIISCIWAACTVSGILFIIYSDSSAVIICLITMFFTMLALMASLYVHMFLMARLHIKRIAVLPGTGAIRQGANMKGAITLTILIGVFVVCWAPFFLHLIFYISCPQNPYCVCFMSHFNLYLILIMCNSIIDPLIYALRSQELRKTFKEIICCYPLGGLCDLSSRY

For the molecule `CC(C)(C)c1cc(C(c2cccnc2)N2CCN(CCO)CC2)cc(C(C)(C)C)c1O` (configuration not stated), the EC50 is 4.59 µM (active) in [1]; 17.3 µM (active) in test [2]; 3.77 µM (active) in test [3]; 0.488 µM (active) in [6]; 3.45 µM (active) in test [8]; 7.35 µM (inactive) in [14]. Besides, the AC50 in [4] was 7.04 µM (active); in test [7], 25.2 µM (active); in test [10], 20 µM (active); in test [11], 24 µM (active); in [12], 1.7 µM (active). Besides, the IC50 is 3.96 µM (active) in test [5]; 25.1 µM (inactive) in test [9]; 4.68 µM (active) in test [13]; > 66.6 µM (inactive) in [15]; 35.9 µM (inactive) in test [16]; > 64.6 µM (inactive) in test [17].
